US6737383B1, “Herbicidal oxadiazolidines” (priority 1999, dated 2004)

Columns and labels:
bedstraw = assay: Test B pre/postemergence bedstraw; type: in vivo, Galium aparine
Method in brief: (§1)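 Test chemicals in a non-phytotoxic solvent mixture with surfactant were sprayed preemergence onto planted seeds and postemergence onto plants 2 to 18 cm tall (1- to 4-leaf stage). After twelve to sixteen days in a greenhouse, injury was visually rated against untreated controls from 0 (no effect) to 10 (complete control).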

blackgrass = assay: Test B pre/postemergence blackgrass; type: in vivo, Alopecurus myosuroides
Method in brief: as §1

surinam grass = assay: Test B pre/postemergence surinam grass; type: in vivo, Brachiaria decumbens
Method in brief: as §1

cocklebur = assay: Test B pre/postemergence cocklebur; type: in vivo, Xanthium strumarium
Method in brief: as §1

corn = assay: Test B pre/postemergence corn; type: in vivo, Zea mays
Method in brief: as §1

giant foxtail = assay: Test B pre/postemergence giant foxtail; type: in vivo, Setaria faberii
Method in brief: as §1

morningglory = assay: Test B pre/postemergence morningglory; type: in vivo, Ipomoea hederacea
Method in brief: as §1

pigweed = assay: Test B pre/postemergence pigweed; type: in vivo, Amaranthus retroflexus
Method in brief: as §1

rape = assay: Test B pre/postemergence rape; type: in vivo, Brassica napus
Method in brief: as §1

soybean = assay: Test B pre/postemergence soybean; type: in vivo, Glycine max
Method in brief: as §1

sugar beet = assay: Test B pre/postemergence sugar beet; type: in vivo, Beta vulgaris
Method in brief: as §1

velvetleaf = assay: Test B pre/postemergence velvetleaf; type: in vivo, Abutilon theophrasti
Method in brief: as §1

purple nutsedge = assay: Test B pre/postemergence purple nutsedge; type: in vivo, Cyperus rotundus
Method in brief: as §1

smallflower flatsedge = assay: Test B flood test smallflower flatsedge; type: in vivo, Cyperus difformis
Method in brief: (§2)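 Read-out is a visual response score from 0 (no effect) to 10 (complete control), assigned by comparison with untreated controls. Treatment was applied at the 2-leaf stage, and plants stayed in the greenhouse for twelve to sixteen days before scoring.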

duck salad = assay: Test B flood test duck salad; type: in vivo, Heteranthera limosa
Method in brief: as §2

bamyardgrass = assay: Test B flood test barnyardgrass; type: in vivo, Echinochloa crus-galli
Method in brief: as §2

[1] = Preemergence, Rate 62 g/ha, scale of 0 to 10 where 0 is no effect and 10 is complete control
[2] = Preemergence, Rate 125 g/ha, 0 is no effect, 10 is complete control
[3] = Preemergence, Rate 250 g/ha, scale 0 to 10, 0 is no effect, 10 is complete control
[4] = Preemergence, Rate 500 g/ha, scale 0 (no effect) to 10 (complete control)
[5] = Preemergence, Rate 500 g/ha, scale of 0 to 10 where 0 is no effect and 10 is complete control
[6] = Rate 62 g/ha, Postemergence, scale of 0 to 10 where 0 is no effect and 10 is complete control
[7] = Rate 125 g/ha, Postemergence, scale 0 to 10
[8] = Rate 500 g/ha, Postemergence, scale 0 to 10
[9] = Rate 62 g/ha, headed Pre-emergence (flood test species), scale 0 to 10 (0 no effect, 10 complete control)
[10] = Rate 125 g/ha, Pre-emergence, flood test species, scale 0 to 10 where 0 is no effect and 10 is complete control
[11] = Rate 250 g/ha, Pre-emergence, flood-test species, scale 0 to 10, 0 is no effect, 10 is complete control
[12] = Rate 500 g/ha, headed Pre-emergence (flood test species), scale 0 to 10 (0 no effect, 10 complete control)

CCc1cccc(C)c1-n1c(=O)on(C(=O)N(c2ccc(F)cc2)C(C)C)c1=O [Compound 201]
Bedstraw plant response rating (bedstraw; [1]): 0
Bedstraw plant response rating (0 to 10 scale) (bedstraw; [2]): 0
Bedstraw plant response rating (bedstraw; [3]): 0
Bedstraw plant response rating (bedstraw; [4]): 0
Plant response rating, Bedstraw (bedstraw; [5]): 0
Bedstraw plant response rating (bedstraw; [6]): 0
Bedstraw plant response rating (bedstraw; [7]): 0
Plant response rating (0 to 10; 0 is no effect, 10 is complete control), Bedstraw (bedstraw; Rate 250 g/ha, Postemergence): 0
Bedstraw plant response rating (bedstraw; [8]): 0
Blackgrass plant response rating (blackgrass; [1]): 0
Blackgrass plant response rating (0 to 10 scale) (blackgrass; [2]): 0
Blackgrass plant response rating (blackgrass; [3]): 4
Blackgrass plant response rating (blackgrass; [4]): 4
Plant response rating, Blackgrass (blackgrass; [5]): 4
Blackgrass plant response rating (blackgrass; [6]): 0
Blackgrass plant response rating (blackgrass; [7]): 0
Plant response rating (0 to 10; 0 is no effect, 10 is complete control), Blackgrass (blackgrass; Rate 250 g/ha, Postemergence): 0
Blackgrass plant response rating (blackgrass; [8]): 4
B. signalgrass plant response rating (surinam grass; [1]): 0
B. signalgrass plant response rating (0 to 10 scale) (surinam grass; [2]): 0
B. signalgrass plant response rating (surinam grass; [3]): 0
B. signalgrass plant response rating (surinam grass; [4]): 0
Plant response rating, B. signalgrass (surinam grass; [5]): 4
B. signalgrass plant response rating (surinam grass; [6]): 0
B. signalgrass plant response rating (surinam grass; Rate 125 g/ha, Postemergence, scale 0 (no effect) to 10 (complete control)): 0
Plant response rating, B. signalgrass (surinam grass; Rate 250 g/ha, Postemergence, scale 0 to 10, 0 is no effect, 10 is complete control): 0
B. signalgrass plant response rating (surinam grass; Rate 500 g/ha, Postemergence, scale 0 to 10, 0 no effect, 10 complete control): 0
Cocklebur plant response rating (cocklebur; [1]): 0
Cocklebur plant response rating (0 to 10 scale) (cocklebur; [2]): 0
Cocklebur plant response rating (cocklebur; [3]): 0
Cocklebur plant response rating (cocklebur; [4]): 0
Plant response rating, Cocklebur (cocklebur; [5]): 0
Cocklebur plant response rating (cocklebur; [6]): 0
Cocklebur plant response rating (cocklebur; [7]): 0
Plant response rating (0 to 10; 0 is no effect, 10 is complete control), Cocklebur (cocklebur; Rate 250 g/ha, Postemergence): 0
Cocklebur plant response rating (cocklebur; [8]): 0
Corn plant response rating (corn; [1]): 0
Corn plant response rating (0 to 10 scale) (corn; [2]): 0
Corn plant response rating (corn; [3]): 0
Corn plant response rating (corn; [4]): 0
Plant response rating, Corn (corn; [5]): 0
Corn plant response rating (corn; [6]): 0
Corn plant response rating (corn; [7]): 0
Plant response rating (0 to 10; 0 is no effect, 10 is complete control), Corn (corn; Rate 250 g/ha, Postemergence): 0
Corn plant response rating (corn; [8]): 0
Giant foxtail plant response rating (giant foxtail; [1]): 2
Giant foxtail plant response rating (0 to 10 scale) (giant foxtail; [2]): 6
Giant foxtail plant response rating (giant foxtail; [3]): 8
Giant foxtail plant response rating (giant foxtail; [4]): 10
Plant response rating, Giant foxtail (giant foxtail; [5]): 10
Giant foxtail plant response rating (giant foxtail; [6]): 0
Giant foxtail plant response rating (giant foxtail; [7]): 0
Plant response rating (0 to 10; 0 is no effect, 10 is complete control), Giant foxtail (giant foxtail; Rate 250 g/ha, Postemergence): 0
Giant foxtail plant response rating (giant foxtail; [8]): 0
Morningglory plant response rating (morningglory; [1]): 0
Morningglory plant response rating (0 to 10 scale) (morningglory; [2]): 0
Morningglory plant response rating (morningglory; [3]): 0
Morningglory plant response rating (morningglory; [4]): 0
Plant response rating, Morningglory (morningglory; [5]): 0
Morningglory plant response rating (morningglory; [6]): 1
Morningglory plant response rating (morningglory; [7]): 1
Plant response rating (0 to 10; 0 is no effect, 10 is complete control), Morningglory (morningglory; Rate 250 g/ha, Postemergence): 1
Morningglory plant response rating (morningglory; [8]): 3
Redroot pigweed plant response rating (pigweed; [1]): 0
Redroot pigweed plant response rating (0 to 10 scale) (pigweed; [2]): 0
Redroot pigweed plant response rating (pigweed; [3]): 0
Redroot pigweed plant response rating (pigweed; [4]): 0
Plant response rating, Redroot pigweed (pigweed; [5]): 0
Redroot pigweed plant response rating (pigweed; [6]): 0
Redroot pigweed plant response rating (pigweed; [7]): 0
Plant response rating (0 to 10; 0 is no effect, 10 is complete control), Redroot pigweed (pigweed; Rate 250 g/ha, Postemergence): 0
Redroot pigweed plant response rating (pigweed; [8]): 3
Rape plant response rating (rape; [1]): 0
Rape plant response rating (0 to 10 scale) (rape; [2]): 0
Rape plant response rating (rape; [3]): 0
Rape plant response rating (rape; [4]): 0
Plant response rating, Rape (rape; [5]): 0
Rape plant response rating (rape; [6]): 0
Rape plant response rating (rape; [7]): 0
Plant response rating (0 to 10; 0 is no effect, 10 is complete control), Rape (rape; Rate 250 g/ha, Postemergence): 0
Rape plant response rating (rape; [8]): 0
Soybean plant response rating (soybean; [1]): 0
Soybean plant response rating (0 to 10 scale) (soybean; [2]): 0
Soybean plant response rating (soybean; [3]): 0
Soybean plant response rating (soybean; [4]): 0
Plant response rating, Soybean (soybean; [5]): 0
Soybean plant response rating (soybean; [6]): 1
Soybean plant response rating (soybean; [7]): 1
Plant response rating (0 to 10; 0 is no effect, 10 is complete control), Soybean (soybean; Rate 250 g/ha, Postemergence): 2
Soybean plant response rating (soybean; [8]): 3
Sugarbeets plant response rating (sugar beet; [1]): 0
Sugarbeets plant response rating (0 to 10 scale) (sugar beet; [2]): 0
Sugarbeets plant response rating (sugar beet; [3]): 0
Sugarbeets plant response rating (sugar beet; [4]): 0
Plant response rating, Sugarbeets (sugar beet; [5]): 0
Sugarbeets plant response rating (sugar beet; [6]): 0
Sugarbeets plant response rating (sugar beet; [7]): 0
Plant response rating (0 to 10; 0 is no effect, 10 is complete control), Sugarbeets (sugar beet; Rate 250 g/ha, Postemergence): 3
Sugarbeets plant response rating (sugar beet; [8]): 4
Velvetleaf plant response rating (velvetleaf; [1]): 0
Velvetleaf plant response rating (velvetleaf; [3]): 0
Velvetleaf plant response rating (velvetleaf; [4]): 0
Plant response rating, Velvetleaf (velvetleaf; [5]): 0
Velvetleaf plant response rating (velvetleaf; [6]): 0
Velvetleaf plant response rating (velvetleaf; [7]): 0
Plant response rating (0 to 10; 0 is no effect, 10 is complete control), Velvetleaf (velvetleaf; Rate 250 g/ha, Postemergence): 1
Nutsedge plant response rating (purple nutsedge; [1]): 0
Nutsedge plant response rating (0 to 10 scale) (purple nutsedge; [2]): 0
Nutsedge plant response rating (purple nutsedge; [4]): 0
Nutsedge plant response rating (purple nutsedge; [6]): 0
Nutsedge plant response rating (purple nutsedge; [7]): 0
Plant response rating (0 to 10; 0 is no effect, 10 is complete control), Nutsedge (purple nutsedge; Rate 250 g/ha, Postemergence): 0
Nutsedge plant response rating (purple nutsedge; [8]): 0
S. Flatsedge plant response rating (smallflower flatsedge; [9]): 0
S. Flatsedge plant response rating (smallflower flatsedge; [10]): 0
S. Flatsedge plant response rating (smallflower flatsedge; [11]): 0
S. Flatsedge plant response rating (smallflower flatsedge; Rate 500 g/ha, Pre-emergence, flood test species, scale 0 to 10 (0 no effect, 10 complete control)): 7
Ducksalad plant response rating (duck salad; [9]): 0
Ducksalad plant response rating (duck salad; [10]): 0
Ducksalad plant response rating (duck salad; [11]): 0
Plant response rating, Ducksalad (duck salad; [12]): 2
Barnyardgrass plant response rating (bamyardgrass; [9]): 0
Barnyardgrass plant response rating (bamyardgrass; [10]): 0
Barnyardgrass plant response rating (bamyardgrass; [11]): 0
Plant response rating, Barnyardgrass (bamyardgrass; [12]): 9
